Assays:
Falcilysin = biological target: T1, Falcilysin (Plasmodium falciparum (isolate 3D7), UniProt Q76NL8); assay: Inhibition of Plasmodium falciparum 3D7 FLN (55 to 1193 residues) expressed in Escherichia coli BL21 using Dabcyl-HKRHSFRMRG-EDANS as substrate preincubated for 5 mins followed by substrate addition measured for 10 mins by fluorescence assay
T1 sequence (Q76NL8 whole entry): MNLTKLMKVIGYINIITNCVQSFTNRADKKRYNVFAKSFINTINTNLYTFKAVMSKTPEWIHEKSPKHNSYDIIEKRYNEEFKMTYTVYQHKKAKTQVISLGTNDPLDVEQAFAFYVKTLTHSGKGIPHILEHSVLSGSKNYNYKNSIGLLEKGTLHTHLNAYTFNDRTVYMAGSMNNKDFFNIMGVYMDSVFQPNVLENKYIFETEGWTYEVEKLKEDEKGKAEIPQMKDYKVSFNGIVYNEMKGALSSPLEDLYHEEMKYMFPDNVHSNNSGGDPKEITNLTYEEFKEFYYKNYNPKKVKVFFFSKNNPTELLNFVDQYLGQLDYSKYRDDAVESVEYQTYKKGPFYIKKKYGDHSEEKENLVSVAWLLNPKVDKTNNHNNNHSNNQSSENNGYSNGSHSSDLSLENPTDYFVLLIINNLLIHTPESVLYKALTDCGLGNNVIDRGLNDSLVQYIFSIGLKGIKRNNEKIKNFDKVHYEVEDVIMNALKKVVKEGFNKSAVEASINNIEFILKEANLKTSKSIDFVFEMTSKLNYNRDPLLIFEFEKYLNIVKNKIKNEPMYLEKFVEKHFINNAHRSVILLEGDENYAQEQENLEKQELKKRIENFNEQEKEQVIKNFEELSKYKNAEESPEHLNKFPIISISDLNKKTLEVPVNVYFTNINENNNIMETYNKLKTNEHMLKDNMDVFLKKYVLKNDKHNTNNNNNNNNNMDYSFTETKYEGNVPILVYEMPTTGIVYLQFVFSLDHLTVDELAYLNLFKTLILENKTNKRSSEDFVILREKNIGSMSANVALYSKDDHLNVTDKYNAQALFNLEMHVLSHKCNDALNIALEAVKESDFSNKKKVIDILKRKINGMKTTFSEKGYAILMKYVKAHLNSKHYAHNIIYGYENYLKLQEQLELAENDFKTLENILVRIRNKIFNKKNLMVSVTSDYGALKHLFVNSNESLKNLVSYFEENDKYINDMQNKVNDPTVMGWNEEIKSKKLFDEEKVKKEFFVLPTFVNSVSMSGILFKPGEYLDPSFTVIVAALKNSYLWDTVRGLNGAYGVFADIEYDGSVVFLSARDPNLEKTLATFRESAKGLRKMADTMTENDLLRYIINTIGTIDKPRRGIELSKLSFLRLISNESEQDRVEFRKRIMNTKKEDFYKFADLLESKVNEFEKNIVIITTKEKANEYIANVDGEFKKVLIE

Plasmodium falciparum = assay: Parasiticidal activity against ring stage Plasmodium falciparum 3D7 infected in human RBC after 70 to 80 hrs by acridine orange staining-based assay; type: functional, organism-based; settings: 3D7, Erythrocyte

| SMILES | IC50 (Falcilysin) | IC50 (Plasmodium falciparum) |
| --- | --- | --- |
| COc1ccc(S(=O)(=O)N2CCN(C(=O)c3ccc(-c4ccccc4)cc3)CC2C(=O)NO)cc1 (configuration not stated) | 10 µM | 5 µM |
| O=C(NO)C1CN(C(=O)c2ccccc2)CCN1S(=O)(=O)c1ccc(Br)cc1 (configuration not stated) | 35 µM | > 10 µM |
| O=C(NO)C1CN(C(=O)c2ccc(-c3ccccc3)cc2)CCN1S(=O)(=O)c1ccccc1 (configuration not stated) | 8 µM | > 10 µM |
| COc1ccc(S(=O)(=O)N2CCN(C(=O)c3cccc(Br)c3)CC2C(=O)NO)cc1 (configuration not stated) | 10 µM | > 10 µM |
| CCCCN1CCN(S(=O)(=O)c2ccccc2)C(C(=O)NO)C1 (configuration not stated) | > 50 µM | > 10 µM |
| O=C(NO)C1CN(C(=O)c2ccc(Br)cc2)CCN1S(=O)(=O)c1ccccc1 (configuration not stated) | 13 µM | > 10 µM |
| O=C(NO)C1CN(C(=O)c2ccc(-c3ccccc3)cc2)CCN1S(=O)(=O)c1ccc(Br)cc1 (configuration not stated) | 1.4 µM | 1.4 µM |
| COc1ccc(S(=O)(=O)N2CCN(S(=O)(=O)c3ccccc3)CC2C(=O)NO)cc1 (configuration not stated) | > 50 µM | > 10 µM |
| COc1ccc(S(=O)(=O)N2CCN(C(=O)c3ccc(Cl)c(Cl)c3)CC2C(=O)NO)cc1 (configuration not stated) | 6 µM | > 10 µM |
| O=C(NO)C1CN(C(=O)c2ccc(Cl)c(Cl)c2)CCN1S(=O)(=O)c1ccccc1 (configuration not stated) | 5 µM | > 10 µM |
| O=C(NO)C1CN(C(=O)c2ccccc2Br)CCN1S(=O)(=O)c1ccccc1 (configuration not stated) | 7 µM | > 10 µM |
| O=C(NO)C1CN(C(=O)c2ccccc2)CCN1S(=O)(=O)c1ccccc1 (configuration not stated) | 40 µM | > 10 µM |
| O=C(NO)C1CN(C(=O)c2ccc(F)cc2)CCN1S(=O)(=O)c1ccc(Br)cc1 (configuration not stated) | 16 µM | > 10 µM |
| COc1ccc(S(=O)(=O)N2CCN(C(=O)c3ccccc3Br)CC2C(=O)NO)cc1 (configuration not stated) | 8 µM | > 10 µM |
| O=C(NO)C1CN(C(=O)c2ccc(F)cc2)CCN1S(=O)(=O)c1ccccc1 (configuration not stated) | > 50 µM | > 10 µM |
| O=C(NO)C1CN(CCCO)CCN1S(=O)(=O)c1ccccc1 (configuration not stated) | > 50 µM | > 10 µM |
| O=C(NO)C1CN(C(=O)c2cccc(F)c2)CCN1S(=O)(=O)c1ccc(Br)cc1 (configuration not stated) | 31 µM | > 10 µM |
| CCC(=O)N1CCN(S(=O)(=O)c2ccc(Br)cc2)C(C(=O)NO)C1 (configuration not stated) | > 50 µM | > 10 µM |
| COc1ccc(S(=O)(=O)N2CCN(C(=O)c3ccccc3)CC2C(=O)NO)cc1 (configuration not stated) | > 50 µM | > 10 µM |
| O=C(NO)C1CN(C(=O)c2cccc(F)c2)CCN1S(=O)(=O)c1ccccc1 (configuration not stated) | > 50 µM | > 10 µM |
| COc1ccc(S(=O)(=O)N2CCN(C(=O)c3ccc(Br)cc3)CC2C(=O)NO)cc1 (configuration not stated) | 14 µM | > 10 µM |

Source: ChEMBL document CHEMBL4219245, “Development of piperazine-based hydroxamic acid inhibitors against falcilysin, an essential malarial protease” (Bioorg Med Chem Lett, 2018)
